# Read-outs that look alike come from different tables or passages of the source.
# Legend:
# P-gp = P-gp (Homo sapiens, UniProt P08183); test: P-gp substrate status of the CBD metabolite; type: in vitro ADME
# Text: (§1) The pharmacological properties of CBD are not fully elucidated. […] 7-COOH-CBD is an inhibitor of transport mediated via BCRP and BSEP at clinically relevant concentrations.
# BCRP = target: T1, BCRP (Homo sapiens, UniProt Q9UNQ0); test: Inhibition of BCRP-mediated transport; type: in vitro ADME; settings: at clinically relevant concentrations
# T1 sequence (Q9UNQ0 1-655): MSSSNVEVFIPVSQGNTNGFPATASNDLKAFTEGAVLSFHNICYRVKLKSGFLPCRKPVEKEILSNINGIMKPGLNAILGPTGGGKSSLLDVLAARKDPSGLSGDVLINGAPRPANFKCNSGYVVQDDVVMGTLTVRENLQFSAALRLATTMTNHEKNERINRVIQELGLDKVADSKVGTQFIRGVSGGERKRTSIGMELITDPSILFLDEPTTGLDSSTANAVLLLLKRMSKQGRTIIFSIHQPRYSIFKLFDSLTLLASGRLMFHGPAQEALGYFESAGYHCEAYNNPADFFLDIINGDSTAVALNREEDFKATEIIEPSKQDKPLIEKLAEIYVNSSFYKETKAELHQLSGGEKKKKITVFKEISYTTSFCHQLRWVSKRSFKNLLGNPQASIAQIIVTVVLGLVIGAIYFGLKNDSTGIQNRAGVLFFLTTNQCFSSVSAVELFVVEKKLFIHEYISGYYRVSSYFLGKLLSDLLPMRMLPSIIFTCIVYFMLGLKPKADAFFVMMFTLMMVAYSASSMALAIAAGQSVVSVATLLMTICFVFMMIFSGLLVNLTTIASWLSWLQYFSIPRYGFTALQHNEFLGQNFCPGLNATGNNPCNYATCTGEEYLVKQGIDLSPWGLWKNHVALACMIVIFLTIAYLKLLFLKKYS
# Text: as §1
# BSEP = BSEP (Homo sapiens, UniProt O95342); test: Inhibition of BSEP-mediated transport; type: in vitro ADME; settings: at clinically relevant concentrations
# Text: as §1
# [1] = coadministered P-gp and CYP3A4 inhibitor; cited from earlier work
# [2] = Clinical DDI study of steady-state CBD with orally dosed midazolam (GWEP17028); type: in vivo; settings: CBD at steady-state (750 mg bid, fed state), dosed concomitantly
# Text: The everolimus label contains no instructions to adjust the dose when administered with a P-gp inhibitor that is not also a moderate or strong CYP3A4 inhibitor.
# [3] = Steady state AUC of CBD by daily dose; settings: human, in vivo
# Text: In some embodiments, the AUCt1-t2 is reported as a geometric mean (% coefficient of variation).
# [4] = Adverse effects of elevated CBD levels; type: in vivo
# Text: Transaminase can lead to hepatic dysfunction, including unexplained nausea, vomiting, right upper quadrant abdominal pain, fatigue, anorexia, or jaundice and/or dark urine. Elevated exposure of everolimus exposure is known to cause non-infectious pneumonitis, infections, severe hypersensitivity to reactions, angioedema, stomatitis, renal failure, impaired wound healing, metabolic disorders, myelosuppression, risk of infection or reduced immune response with vaccination, embryo-fetal toxicity, and stomatis, respiratory tract infection. The methods of the disclosure reduce the incidence of one or more of the above side effects.
# clinical = settings: human, in vivo, 5 mg
# Text: The duration of the trial was approximately 9 weeks, which includes a screening period (up to 4 weeks), a treatment period (18 days) and a safety follow-up period (2 weeks). After signing the informed consent form (ICF), participants enter the screening period (Day −28 to −1). On Day −1, screened participants who continued to meet eligibility criteria were admitted to the clinical research unit (CRU) at approximately […] and enrolled into the trial. On Day 1, participants received everolimus, 30 minutes after starting a standard meal. […] On Day 18, participants were discharged from the CRU once all assessments were completed.
# The time of the meal consumed at the site during days of IMP administration was recorded, as was the dose and dosing time of IMP (as appropriate) relative to sampling times.
# Log transformed Cmax, AUC(0-∞), and AUC(0-t) parameters for everolimus were analyzed using a linear mixed-effects model with a fixed effect for treatment and a random effect for participant. The treatment differences are back transformed to present the ratios of geometric means and the corresponding 90% confidence intervals (CIs).
# CYP3A4 = CYP3A4 (Homo sapiens, UniProt P08684); settings: oral dose of midazolam coadministered; cited from earlier work
# [5] = cited from earlier work
# [6] = once-daily dosing; cited from earlier work
# CYP3A4, sequence (P08684 whole entry): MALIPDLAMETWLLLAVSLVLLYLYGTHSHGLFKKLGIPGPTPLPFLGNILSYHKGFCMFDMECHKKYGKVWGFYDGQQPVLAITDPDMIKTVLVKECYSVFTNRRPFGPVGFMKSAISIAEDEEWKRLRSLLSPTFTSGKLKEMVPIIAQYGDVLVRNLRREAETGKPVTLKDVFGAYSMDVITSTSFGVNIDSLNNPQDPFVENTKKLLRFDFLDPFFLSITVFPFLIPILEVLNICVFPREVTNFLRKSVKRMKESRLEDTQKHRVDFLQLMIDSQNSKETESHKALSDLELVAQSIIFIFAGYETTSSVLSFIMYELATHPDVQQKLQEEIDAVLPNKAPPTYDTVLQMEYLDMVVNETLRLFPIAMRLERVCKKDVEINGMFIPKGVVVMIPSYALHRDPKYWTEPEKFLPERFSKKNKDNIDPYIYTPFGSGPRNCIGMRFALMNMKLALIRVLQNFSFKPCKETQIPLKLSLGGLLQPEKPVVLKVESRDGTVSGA
# BSEP, sequence (O95342 whole entry): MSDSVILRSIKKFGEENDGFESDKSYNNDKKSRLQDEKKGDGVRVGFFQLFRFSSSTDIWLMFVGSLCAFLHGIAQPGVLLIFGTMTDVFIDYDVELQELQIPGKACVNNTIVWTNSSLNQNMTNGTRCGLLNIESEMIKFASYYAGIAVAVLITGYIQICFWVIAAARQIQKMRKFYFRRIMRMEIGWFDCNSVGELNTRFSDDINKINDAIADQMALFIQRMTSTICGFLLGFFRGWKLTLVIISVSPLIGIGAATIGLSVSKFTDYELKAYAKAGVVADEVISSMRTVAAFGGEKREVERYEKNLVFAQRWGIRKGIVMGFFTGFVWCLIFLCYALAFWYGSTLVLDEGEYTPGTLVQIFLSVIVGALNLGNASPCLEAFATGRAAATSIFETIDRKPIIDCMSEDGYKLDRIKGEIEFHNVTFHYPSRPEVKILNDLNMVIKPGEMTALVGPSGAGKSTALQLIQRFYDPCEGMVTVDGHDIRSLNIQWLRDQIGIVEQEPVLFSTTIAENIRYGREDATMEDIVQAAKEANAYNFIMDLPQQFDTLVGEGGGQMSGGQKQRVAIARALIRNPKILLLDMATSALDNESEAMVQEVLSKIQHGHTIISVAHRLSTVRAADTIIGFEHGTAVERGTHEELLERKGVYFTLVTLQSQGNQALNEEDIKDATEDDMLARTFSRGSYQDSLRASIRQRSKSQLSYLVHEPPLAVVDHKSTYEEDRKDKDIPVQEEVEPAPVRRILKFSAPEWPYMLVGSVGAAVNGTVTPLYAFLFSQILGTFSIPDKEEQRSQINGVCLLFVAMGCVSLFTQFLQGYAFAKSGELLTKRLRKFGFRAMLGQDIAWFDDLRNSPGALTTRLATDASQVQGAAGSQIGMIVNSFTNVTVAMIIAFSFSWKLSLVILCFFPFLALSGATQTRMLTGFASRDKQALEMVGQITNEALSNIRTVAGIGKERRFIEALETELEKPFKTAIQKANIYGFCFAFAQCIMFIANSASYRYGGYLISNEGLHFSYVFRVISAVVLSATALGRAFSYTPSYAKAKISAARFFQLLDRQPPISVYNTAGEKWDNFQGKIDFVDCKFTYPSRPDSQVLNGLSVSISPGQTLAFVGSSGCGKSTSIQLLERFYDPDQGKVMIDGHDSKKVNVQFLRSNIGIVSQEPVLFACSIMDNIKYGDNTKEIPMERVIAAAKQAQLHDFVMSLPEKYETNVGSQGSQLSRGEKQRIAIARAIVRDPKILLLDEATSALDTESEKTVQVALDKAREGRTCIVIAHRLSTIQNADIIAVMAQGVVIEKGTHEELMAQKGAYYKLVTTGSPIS
# P-gp, sequence (P08183 whole entry): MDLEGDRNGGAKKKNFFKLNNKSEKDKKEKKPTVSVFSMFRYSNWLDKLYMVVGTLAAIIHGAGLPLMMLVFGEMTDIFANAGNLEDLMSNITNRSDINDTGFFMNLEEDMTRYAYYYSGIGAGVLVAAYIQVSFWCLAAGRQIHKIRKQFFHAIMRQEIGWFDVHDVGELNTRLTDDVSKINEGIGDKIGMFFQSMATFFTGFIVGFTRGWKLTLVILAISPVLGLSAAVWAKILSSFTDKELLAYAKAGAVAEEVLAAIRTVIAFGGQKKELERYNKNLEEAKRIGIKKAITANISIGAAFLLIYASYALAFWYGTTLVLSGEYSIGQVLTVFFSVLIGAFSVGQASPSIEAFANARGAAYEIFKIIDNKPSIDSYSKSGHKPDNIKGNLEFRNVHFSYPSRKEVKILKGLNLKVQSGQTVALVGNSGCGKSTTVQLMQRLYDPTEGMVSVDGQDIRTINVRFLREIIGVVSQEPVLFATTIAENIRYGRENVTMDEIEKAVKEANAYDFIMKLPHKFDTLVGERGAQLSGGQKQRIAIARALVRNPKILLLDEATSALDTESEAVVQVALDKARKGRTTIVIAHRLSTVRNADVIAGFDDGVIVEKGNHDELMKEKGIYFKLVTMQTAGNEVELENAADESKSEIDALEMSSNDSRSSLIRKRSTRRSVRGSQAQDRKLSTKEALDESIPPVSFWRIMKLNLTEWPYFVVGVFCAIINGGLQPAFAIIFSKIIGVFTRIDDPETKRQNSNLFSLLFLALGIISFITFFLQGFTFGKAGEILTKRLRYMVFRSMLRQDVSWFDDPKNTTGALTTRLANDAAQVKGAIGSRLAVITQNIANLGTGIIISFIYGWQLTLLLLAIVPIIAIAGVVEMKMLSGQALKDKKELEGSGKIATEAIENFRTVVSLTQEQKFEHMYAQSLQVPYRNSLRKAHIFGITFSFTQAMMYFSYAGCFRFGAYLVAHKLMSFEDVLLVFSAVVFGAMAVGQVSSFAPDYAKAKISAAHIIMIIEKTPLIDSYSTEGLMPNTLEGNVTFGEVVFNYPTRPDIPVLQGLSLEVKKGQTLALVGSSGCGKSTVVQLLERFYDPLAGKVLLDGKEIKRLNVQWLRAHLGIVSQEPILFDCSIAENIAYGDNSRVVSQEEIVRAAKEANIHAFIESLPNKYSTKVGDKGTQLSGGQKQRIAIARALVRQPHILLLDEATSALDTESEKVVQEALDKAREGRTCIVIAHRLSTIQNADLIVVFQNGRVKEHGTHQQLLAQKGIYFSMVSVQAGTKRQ
compound,measurement,setting,value
"C=C(C)[C@@H]1CCC(C(=O)O)=C[C@H]1c1c(O)cc(CCCCC)cc1O [7-COOH-CBD, 7-carboxy-cannabidiol]",P-gp substrate status,P-gp,substrate for P-gp
same,Inhibition of transport mediated via BCRP,BCRP,inhibitor
same,Inhibition of transport mediated via BSEP,BSEP,inhibitor
CC[C@H]1OC(=O)[C@H](C)[C@@H](O[C@H]2C[C@@](C)(OC)[C@@H](O)[C@H](C)O2)[C@H](C)[C@@H](O[C@@H]2O[C@H](C)C[C@H](N(C)C)[C@H]2O)[C@](C)(O)C[C@@H](C)C(=O)[C@H](C)[C@@H](O)[C@]1(C)O [Erythromycin],Increase of the AUC of everolimus,[1],4.4 fold
same,Increase of the Cmax of everolimus,[1],2.0 fold
CC(=O)N1CCN(c2ccc(OCC3COC(Cn4ccnc4)(c4ccc(Cl)cc4Cl)O3)cc2)CC1 (stereo not drawn) [ketoconazole],Increase of the AUC of everolimus,[1],15 fold
same,Increase of the Cmax of everolimus,[1],3.9 fold
"C=C(C)[C@@H]1CCC(C)=C[C@H]1c1c(O)cc(CCCCC)cc1O [CBD, Cannabidiol]",Effect on orally dosed midazolam PK parameters,[2],no clinically significant effect
same,AUC(0-t),[3]; 5 mg/kg/day,0.241 µg·h/mL
same,AUC(0-t),[3]; 10 mg/kg/day,0.722 µg·h/mL
same,AUC(0-t),[3]; 20 mg/kg/day,0.963 µg·h/mL
same,AUC,[3]; 25 mg/kg/day,2.52 µg·h/mL
same,AUC,[3]; 50 mg/kg/day,2.73 µg·h/mL
same,Adverse effects caused by elevated levels,[4],"transaminase elevation, rash, somnolence, sedation, lethargy, diarrhea, pyrexia, weight decreased, nasopharyngitis, irritability, oropharyngeal pain, and decreased appetite"
CO[C@H]1C[C@@H]2CC[C@@H](C)[C@@](O)(O2)C(=O)C(=O)N2CCCC[C@H]2C(=O)O[C@H]([C@H](C)C[C@@H]2CC[C@@H](OCCO)[C@H](OC)C2)CC(=O)[C@H](C)/C=C(\C)[C@@H](O)[C@@H](OC)C(=O)[C@H](C)C[C@H](C)/C=C/C=C/C=C/1C [Everolimus],AUC(0-inf),clinical,0.216 µg·h/mL
same,AUC(0-t),clinical,0.095 µg·h/mL
same,Cmax,clinical,0.018 µg/mL
same,Increase in midazolam AUC0-inf,CYP3A4,30%
same,Increase in midazolam Cmax,CYP3A4,25%
same,"Everolimus AUC24, geometric mean±SD",[5]; 2.5 mg of everolimus,0.57 ± 0.195 µg·h/mL
same,"Everolimus Cmaxss, geometric mean±SD",[5]; 2.5 mg of everolimus,0.0621 ± 0.0131 µg/mL
same,"Everolimus Cminss, geometric mean±SD",[5]; 2.5 mg of everolimus,0.0136 ± 0.009 µg/mL
same,"Everolimus AUC24, geometric mean±SD",[5]; 5 mg of everolimus,0.716 ± 0.123 µg·h/mL
same,"Everolimus Cmaxss, geometric mean±SD",[5]; 5 mg of everolimus,0.114 ± 0.036 µg/mL
same,"Everolimus Cminss, geometric mean±SD",[5]; 5 mg of everolimus,0.0174 ± 0.0045 µg/mL
same,"Everolimus tmax, median (range)",[5]; 5 mg of everolimus,48 min
same,Everolimus AUC24,[5]; 10 mg of everolimus,1.47 µg·h/mL
same,Everolimus Cmaxss,[5]; 10 mg of everolimus,0.139 µg/mL
same,Everolimus Cminss,[5]; 10 mg of everolimus,0.0165 µg/mL
same,Time to steady-state,[6],≤ 2 weeks

# Source: US12102619B2 (Jazz Pharmaceuticals Research UK Limited, priority 2020, dated 2024)
